Assay results as given in patent EP4273147A1, “SUBSTITUTED SPIROLACTAMS, SALTS THEREOF AND THEIR USE AS HERBICIDALLY ACTIVE SUBSTANCES” (Bayer Aktiengesellschaft, priority 2022, dated 2023).

Assays:
MATIN = assay: Herbicidal pre-emergence action (Table A4); format: in vivo, Matricaria inodora; conditions: application rate 1280 g/ha; visual grading after ca. 3 weeks
Description: (§1) Seeds of mono- and dicotyledonous weed plants were sown in plastic pots (double sowings with one species of mono- and one species of dicotyledonous weed plants per pot), in sandy loam, and covered with soil.

LOLRI [1] = assay: Herbicidal pre-emergence action (Table A3); format: in vivo, Lolium rigidum; conditions: visual grading after ca. 3 weeks
Description: as §1

ECHCG [2] = assay: Herbicidal post-emergence action (Table B3); format: in vivo, Echinochloa crus-galli; conditions: application rate 1280 g/ha; rated visually after about 3 weeks
Procedure: (§2) Seeds of mono- and dicotyledonous weed plants were placed in plastic pots in sandy loam soil (doubly sown with in each case one species of mono- or dicotyledonous weed plants per pot), covered with soil and cultivated in a greenhouse under controlled growth conditions. 2 to 3 weeks after sowing, the test plants were treated at the one-leaf stage. […] After the test plants had been kept in the greenhouse under optimum growth conditions for about 3 weeks, the activity of the preparations was rated visually in comparison to untreated controls. For example, 100% activity = the plants have died, 0% activity = like control plants.

ECHCG [3] = assay: Herbicidal pre-emergence action (Table A2); format: in vivo, Echinochloa crus-galli; conditions: visual grading after ca. 3 weeks
Description: as §1

STEME = assay: Herbicidal pre-emergence action (Table A6); format: in vivo, Stellaria media; conditions: visual grading after ca. 3 weeks
Description: as §1

POAAN [4] = assay: Herbicidal pre-emergence action (Table A7); format: in vivo, Poa annua; conditions: visual grading after ca. 3 weeks
Description: as §1

ABUTH = assay: Herbicidal pre-emergence action (Table A1); format: in vivo, Abutilon theophrasti; conditions: application rate 1280 g/ha; visual grading after ca. 3 weeks vs untreated controls (100% = plants have died off, 0% = as control plants)
Description: as §1

SETVI [5] = assay: Herbicidal pre-emergence action (Table A5); format: in vivo, Setaria viridis; conditions: visual grading after ca. 3 weeks
Description: as §1

DIGSA [6] = assay: Herbicidal pre-emergence action (Table A12); format: in vivo, Digitaria sanguinalis; conditions: visual grading after ca. 3 weeks
Description: as §1

POAAN [7] = assay: Herbicidal post-emergence action (Table B7); format: in vivo, Poa annua
Procedure: as §2

KCHSC = assay: Herbicidal pre-emergence action (Table A10); format: in vivo, Kochia scoparia; conditions: application rate 1280 g/ha; visual grading after ca. 3 weeks
Description: as §1

LOLRI [8] = assay: Herbicidal pre-emergence action, section C (Table C7); format: in vivo, Lolium rigidum; conditions: application rate 320 g/ha; visual grading after ca. 3 weeks
VERPE [9] = assay: Herbicidal pre-emergence action (Table A11); format: in vivo, Veronica persica; conditions: application rate 1280 g/ha; visual grading after ca. 3 weeks
Description: as §1

VIOTR = assay: Herbicidal pre-emergence action, section C (Table C12); format: in vivo, Viola tricolor; conditions: visual grading after ca. 3 weeks
ORYZA [10] = assay: Pre-emergence effects on crop plants (Table D3); conditions: crop plant; application rate 320 g/ha; visual grading after ca. 3 weeks
ALOMY [11] = assay: Herbicidal pre-emergence action (Table A9); format: in vivo, Alopecurus myosuroides; conditions: application rate 1280 g/ha; visual grading after ca. 3 weeks
Description: as §1

ZEAMX [12] = assay: Post-emergence effects on crop plants (Table F1); format: in vivo, Zea mays; conditions: application rate 320 g/ha, crop plant ZEAMX
Description: (§3) 2 to 3 weeks after sowing, the test plants were sprayed in the single-leaf stage.

ECHCG [13] = assay: Herbicidal pre-emergence action, section C (Table C6); format: in vivo, Echinochloa crus-galli; conditions: application rate 80 g/ha; visual grading after ca. 3 weeks
TRZAS [14] = assay: Post-emergence effects on crop plants (Table F2); format: in vivo, Triticum aestivum; conditions: application rate 320 g/ha, crop plant TRZAS
Description: as §3

TRZAS [15] = assay: Pre-emergence effects on crop plants (Table D2); format: in vivo, Triticum aestivum; conditions: crop plant; application rate 320 g/ha; visual grading after ca. 3 weeks
SETVI [16] = assay: Herbicidal pre-emergence action, section C (Table C10); format: in vivo, Setaria viridis; conditions: application rate 320 g/ha; visual grading after ca. 3 weeks
DIGSA [17] = assay: Herbicidal pre-emergence action, section C (Table C5); format: in vivo, Digitaria sanguinalis; conditions: application rate 320 g/ha; visual grading after ca. 3 weeks
BRSNW [18] = assay: Post-emergence effects on crop plants (Table F5); format: in vivo, Brassica napus; conditions: crop plant BRSNW
Description: as §3

ALOMY [19] = assay: Herbicidal pre-emergence action, section C (Table C2); format: in vivo, Alopecurus myosuroides; conditions: application rate 320 g/ha; visual grading after ca. 3 weeks
Description: Seeds of mono- and dicotyledonous weed plants and crop plants were sown, in plastic or organic planting pots, in sandy loam and covered with soil. The compounds according to the invention, formulated in the form of wettable powders (WP) or as emulsifiable concentrates (EC), were applied to the surface of the covering soil as aqueous suspension or emulsion, with the addition of 0.5% of an additive, at an application rate of 600 1 of water/ha (converted). Following treatment, the pots were placed in a greenhouse and kept under optimum growth conditions for the test plants.

ZEAMX [20] = assay: Pre-emergence effects on crop plants (Table D1); format: in vivo, Zea mays; conditions: crop plant; application rate 320 g/ha; visual grading after ca. 3 weeks
VERPE [21] = assay: Herbicidal pre-emergence action, section C (Table C11); format: in vivo, Veronica persica; conditions: application rate 320 g/ha; visual grading after ca. 3 weeks
ORYZA [22] = assay: Post-emergence effects on crop plants (Table F3); format: in vivo, Oryza sativa; conditions: application rate 320 g/ha, crop plant ORYZA
Description: as §3

GLXMA [23] = assay: Pre-emergence effects on crop plants (Table D4); format: in vivo, Glycine max; conditions: crop plant, visual grading after ca. 3 weeks
Description: Seeds of mono- and dicotyledonous weed plants and crop plants were sown, in plastic or organic planting pots, in sandy loam and covered with soil. The compounds according to the invention, formulated in the form of wettable powders (WP) or as emulsifiable concentrates (EC), were applied to the surface of the covering soil as aqueous suspension or emulsion, with the addition of 0.5% of an additive, at an application rate of 600 1 of water/ha (converted).
Following treatment, the pots were placed in a greenhouse and kept under optimum growth conditions for the test plants.

GLXMA [24] = assay: Post-emergence effects on crop plants (Table F4); format: in vivo, Glycine max; conditions: application rate 80 g/ha, crop plant GLXMA
Description: as §3

BRSNW [25] = assay: Pre-emergence effects on crop plants (Table D5); format: in vivo, Brassica napus; conditions: crop plant; application rate 80 g/ha; visual grading after ca. 3 weeks

## O=C1N(Cc2ccccc2Cl)CCCC12CCN(Cc1c(F)cccc1F)C2=O (racemic) [I-076]
MATIN
  pre-emergence activity against MATIN: 90%
LOLRI [1]; application rate 320 g/ha
  pre-emergence activity against LOLRI: 100%
ECHCG [2]
  post-emergence activity against ECHCG: 90%
ECHCG [3]; application rate 1280 g/ha
  pre-emergence activity against ECHCG: 100%
STEME; application rate 320 g/ha
  pre-emergence activity against STEME: 90%
POAAN [4]; application rate 320 g/ha
  pre-emergence activity against POAAN: 100%
ABUTH
  pre-emergence activity against ABUTH: 90%
SETVI [5]; application rate 1280 g/ha
  pre-emergence activity against SETVI: 100%
DIGSA [6]; application rate 320 g/ha
  pre-emergence activity against DIGSA: 90%

## O=C1N(Cc2ccccc2)CCC12CCCN(Cc1ccccc1F)C2=O (racemic) [I-093]
MATIN
  pre-emergence activity against MATIN: 90%
LOLRI [1]; application rate 1280 g/ha
  pre-emergence activity against LOLRI: 100%
POAAN [7]; application rate 320 g/ha
  post-emergence activity against POAAN: 90%
ECHCG [3]; application rate 1280 g/ha
  pre-emergence activity against ECHCG: 100%
STEME; application rate 1280 g/ha
  pre-emergence activity against STEME: 90%
POAAN [4]; application rate 320 g/ha
  pre-emergence activity against POAAN: 100%
ABUTH
  pre-emergence activity against ABUTH: 90%
SETVI [5]; application rate 320 g/ha
  pre-emergence activity against SETVI: 100%
DIGSA [6]; application rate 1280 g/ha
  pre-emergence activity against DIGSA: 100%
KCHSC
  pre-emergence activity against KCHSC: 90%

## O=C1N(Cc2ccccc2F)CCCC12CCN(Cc1ccccc1Cl)C2=O (racemic) [I-027]
LOLRI [8]
  pre-emergence activity against LOLRI: 90%
MATIN
  pre-emergence activity against MATIN: 90%
VERPE [9]
  pre-emergence activity against VERPE: 90%
VIOTR; application rate 80 g/ha
  pre-emergence activity against VIOTR: 90%
ORYZA [10]
  pre-emergence activity against ORYZA: 0%
ALOMY [11]
  pre-emergence activity against ALOMY: 90%
ZEAMX [12]
  post-emergence activity against ZEAMX: 0%
LOLRI [1]; application rate 1280 g/ha
  pre-emergence activity against LOLRI: 100%
POAAN [7]; application rate 1280 g/ha
  post-emergence activity against POAAN: 90%
ECHCG [13]
  pre-emergence activity against ECHCG: 100%
ECHCG [2]
  post-emergence activity against ECHCG: 90%
ECHCG [3]; application rate 320 g/ha
  pre-emergence activity against ECHCG: 100%
STEME; application rate 1280 g/ha
  pre-emergence activity against STEME: 90%
POAAN [4]; application rate 320 g/ha
  pre-emergence activity against POAAN: 100%
TRZAS [14]
  post-emergence activity against TRZAS: 0%
SETVI [5]; application rate 1280 g/ha
  pre-emergence activity against SETVI: 100%
TRZAS [15]
  pre-emergence activity against TRZAS: 0%
SETVI [16]
  pre-emergence activity against SETVI: 100%
DIGSA [17]
  pre-emergence activity against DIGSA: 100%
BRSNW [18]; application rate 80 g/ha
  post-emergence activity against BRSNW: 20%
ALOMY [19]
  pre-emergence activity against ALOMY: 100%
ZEAMX [20]
  pre-emergence activity against ZEAMX: 0%
DIGSA [6]; application rate 320 g/ha
  pre-emergence activity against DIGSA: 90%
VERPE [21]
  pre-emergence activity against VERPE: 90%
ORYZA [22]
  post-emergence activity against ORYZA: 0%
GLXMA [23]; application rate 80 g/ha
  pre-emergence activity against GLXMA: 0%

## CC(c1c(F)cccc1F)N1CCCC2(CCCN(C(C)c3c(F)cccc3F)C2=O)C1=O (stereo not drawn) [I-074]
VERPE [9]
  pre-emergence activity against VERPE: 90%
VIOTR; application rate 320 g/ha
  pre-emergence activity against VIOTR: 90%
ALOMY [11]
  pre-emergence activity against ALOMY: 90%
GLXMA [24]
  post-emergence activity against GLXMA: 0%
ZEAMX [12]
  post-emergence activity against ZEAMX: 0%
LOLRI [1]; application rate 1280 g/ha
  pre-emergence activity against LOLRI: 90%
ECHCG [3]; application rate 1280 g/ha
  pre-emergence activity against ECHCG: 90%
STEME; application rate 320 g/ha
  pre-emergence activity against STEME: 90%
POAAN [4]; application rate 1280 g/ha
  pre-emergence activity against POAAN: 100%
TRZAS [14]
  post-emergence activity against TRZAS: 0%
SETVI [5]; application rate 320 g/ha
  pre-emergence activity against SETVI: 90%
TRZAS [15]
  pre-emergence activity against TRZAS: 20%
SETVI [16]
  pre-emergence activity against SETVI: 90%
BRSNW [25]
  pre-emergence activity against BRSNW: 0%
DIGSA [17]
  pre-emergence activity against DIGSA: 100%
BRSNW [18]; application rate 320 g/ha
  post-emergence activity against BRSNW: 0%
ALOMY [19]
  pre-emergence activity against ALOMY: 80%
ZEAMX [20]
  pre-emergence activity against ZEAMX: 0%
DIGSA [6]; application rate 1280 g/ha
  pre-emergence activity against DIGSA: 90%
ORYZA [22]
  post-emergence activity against ORYZA: 0%
GLXMA [23]; application rate 320 g/ha
  pre-emergence activity against GLXMA: 0%
